Holding throughout (design): species or system mouse
Common to all, as to settings: RIA IC50 value for METH/RIA IC50 value for test ligand

Experiment [1] has as its system mAb6H4. The experiment in a line: RIA cross-reactivity profile, inhibition of [3H]-(+)METH binding to mAb6H4.
Experimental: (§1) KD values for mAb were determined by the method of Akera and Cheng (1977, Biochim Biophys Acta 470:412-423).
Experiment [2] relates to mAb6H8. The experiment in a line: RIA cross-reactivity profile, inhibition of [3H]-(+)METH binding to mAb6H8.
Experimental: as §1
The test system of experiment [3] is mAb4G9. The experiment in a line: RIA cross-reactivity profile, inhibition of [3H]-(+)METH binding to mAb4G9.
Experimental: as §1

The text below walks through data of patent publication US8853146B2, “Hapten compounds and compositions and uses thereof” (The Board of Trustees of the University of Arkansas, priority 2007, dated 2014).

Regarding `CN[C@H](C)[C@@H](O)c1ccccc1` [(+)ephedrine], the “Antibody Specificity (Relative Potency to METH), mAb6H4” value in experiment [1] was under 0.001. Moreover, in experiment [2], the “Antibody Specificity (Relative Potency to METH), mAb6H8” value was under 0.001. Moreover, the “Antibody Specificity (Relative Potency to METH), mAb4G9” value in experiment [3] was under 0.001.

In the case of `CNC[C@H](O)c1cccc(O)c1` [l-phenylphrine], the “Antibody Specificity (Relative Potency to METH), mAb6H4” value in experiment [1] is 0.001. Besides, in experiment [2], the “Antibody Specificity (Relative Potency to METH), mAb6H8” value is on record as under 0.001. Also, the “Antibody Specificity (Relative Potency to METH), mAb4G9” value in experiment [3] is recorded as under 0.001.

For the compound `CC(N)Cc1ccccc1` (single isomer, unassigned; (-)) [(−)AMP, (−)amphetamine], the “Antibody Specificity (Relative Potency to METH), mAb6H4” value in experiment [1] is reported as under 0.001. In addition, the “Antibody Specificity (Relative Potency to METH), mAb6H8” value in experiment [2] is 0.003. Further, the “Antibody Specificity (Relative Potency to METH), mAb4G9” value in experiment [3] is on record as 0.063.

Regarding `CNC(C)Cc1ccc2c(c1)OCO2` (single isomer, unassigned; (-)) [(−)MDMA], the “Antibody Specificity (Relative Potency to METH), mAb6H4” value in experiment [1] came to 0.007. Also, in experiment [2], the “Antibody Specificity (Relative Potency to METH), mAb6H8” value is 0.018. Further, the “Antibody Specificity (Relative Potency to METH), mAb4G9” value in experiment [3] was 0.011.

For `CC(N)C(O)c1ccccc1` (single isomer, unassigned; (+)) [(+)phenylpropanolamine], the “Antibody Specificity (Relative Potency to METH), mAb6H4” value in experiment [1] is under 0.001. Besides, the “Antibody Specificity (Relative Potency to METH), mAb6H8” value in experiment [2] was under 0.001. In addition, the “Antibody Specificity (Relative Potency to METH), mAb4G9” value in experiment [3] was under 0.001.

Consider `CNC(C)Cc1ccc2c(c1)OCO2` (single isomer, unassigned; (+)) [(+)MDMA, (+)-3,4-methylenedioxymethamphetamine], for which the “Antibody Specificity (Relative Potency to METH), mAb6H4” value in experiment [1] came to 1.25. Also, in experiment [2], the “Antibody Specificity (Relative Potency to METH), mAb6H8” value amounted to 3.40. Moreover, in experiment [3], the “Antibody Specificity (Relative Potency to METH), mAb4G9” value is 0.29.

`NC[C@H](O)c1ccc(O)c(O)c1` [norepinepherine]: the “Antibody Specificity (Relative Potency to METH), mAb6H4” value in experiment [1] is under 0.001. Besides, the “Antibody Specificity (Relative Potency to METH), mAb6H8” value in experiment [2] is recorded as under 0.001. Also, the “Antibody Specificity (Relative Potency to METH), mAb4G9” value in experiment [3] is reported as under 0.001.

Turning to `NCCc1ccc(O)c(O)c1` [dopamine], the “Antibody Specificity (Relative Potency to METH), mAb6H4” value in experiment [1] is recorded as under 0.001. Besides, the “Antibody Specificity (Relative Potency to METH), mAb6H8” value in experiment [2] is under 0.001. Besides, the “Antibody Specificity (Relative Potency to METH), mAb4G9” value in experiment [3] was under 0.001.

Regarding (+)norpseudoephedrine, in experiment [1], the “Antibody Specificity (Relative Potency to METH), mAb6H4” value is recorded as under 0.001. Further, in experiment [2], the “Antibody Specificity (Relative Potency to METH), mAb6H8” value is on record as under 0.001. For the same compound, the “Antibody Specificity (Relative Potency to METH), mAb4G9” value in experiment [3] is reported as under 0.001.

For the compound (+)pseudoephedrine, the “Antibody Specificity (Relative Potency to METH), mAb6H4” value in experiment [1] is listed as under 0.001. In experiment [2], the “Antibody Specificity (Relative Potency to METH), mAb6H8” value stood at 0.018. In addition, in experiment [3], the “Antibody Specificity (Relative Potency to METH), mAb4G9” value worked out at 0.004.

`NCCc1ccccc1` [β-phenylethylamine]: in experiment [1], the “Antibody Specificity (Relative Potency to METH), mAb6H4” value is reported as under 0.001. For the same compound, the “Antibody Specificity (Relative Potency to METH), mAb6H8” value in experiment [2] was under 0.001. Besides, the “Antibody Specificity (Relative Potency to METH), mAb4G9” value in experiment [3] is on record as 0.001.

Regarding `CC(N)Cc1ccc2c(c1)OCO2` (single isomer, unassigned; (-)) [(−)MDA], the “Antibody Specificity (Relative Potency to METH), mAb6H4” value in experiment [1] is on record as under 0.001. Further, in experiment [2], the “Antibody Specificity (Relative Potency to METH), mAb6H8” value is given as under 0.001. Also, the “Antibody Specificity (Relative Potency to METH), mAb4G9” value in experiment [3] was 0.002.

As to (−)-methamphetamine [(−)METH], the “Antibody Specificity (Relative Potency to METH), mAb6H4” value in experiment [1] worked out at 0.030. Further, the “Antibody Specificity (Relative Potency to METH), mAb6H8” value in experiment [2] was 0.011. In addition, the “Antibody Specificity (Relative Potency to METH), mAb4G9” value in experiment [3] is listed as 0.102.

With `NCCc1ccc(O)cc1` [tyramine], the “Antibody Specificity (Relative Potency to METH), mAb6H4” value in experiment [1] is reported as under 0.001. For the same compound, the “Antibody Specificity (Relative Potency to METH), mAb6H8” value in experiment [2] is listed as under 0.001. The “Antibody Specificity (Relative Potency to METH), mAb4G9” value in experiment [3] was under 0.001.

On to `CC(N)Cc1ccc2c(c1)OCO2` (single isomer, unassigned; (+)) [(+)MDA], for which the “Antibody Specificity (Relative Potency to METH), mAb6H4” value in experiment [1] was 0.001. Further, the “Antibody Specificity (Relative Potency to METH), mAb6H8” value in experiment [2] is reported as 0.024. For the same compound, the “Antibody Specificity (Relative Potency to METH), mAb4G9” value in experiment [3] worked out at 0.090.

Turning to `CNC(C)Cc1ccc(O)cc1` (stereo not drawn) [4-OH-METH], the “Antibody Specificity (Relative Potency to METH), mAb6H4” value in experiment [1] stood at 0.588. In addition, the “Antibody Specificity (Relative Potency to METH), mAb6H8” value in experiment [2] was 0.294. For the same compound, the “Antibody Specificity (Relative Potency to METH), mAb4G9” value in experiment [3] worked out at 0.106.

In the case of `NCCc1c[nH]c2ccc(O)cc12` [serotonin], the “Antibody Specificity (Relative Potency to METH), mAb6H4” value in experiment [1] is under 0.001. For the same compound, the “Antibody Specificity (Relative Potency to METH), mAb6H8” value in experiment [2] is on record as under 0.001. Also, in experiment [3], the “Antibody Specificity (Relative Potency to METH), mAb4G9” value is given as under 0.001.

Turning to `CC(N)Cc1ccccc1` (single isomer, unassigned; (+)) [(+)AMP, (+)-amphetamine], in experiment [1], the “Antibody Specificity (Relative Potency to METH), mAb6H4” value is given as 0.001. In experiment [2], the “Antibody Specificity (Relative Potency to METH), mAb6H8” value was 0.023. Further, in experiment [3], the “Antibody Specificity (Relative Potency to METH), mAb4G9” value came to 0.34.

With `CNC[C@H](O)c1ccc(O)c(O)c1` [epinephrine], the “Antibody Specificity (Relative Potency to METH), mAb6H4” value in experiment [1] is listed as under 0.001. In experiment [2], the “Antibody Specificity (Relative Potency to METH), mAb6H8” value is recorded as under 0.001. In addition, in experiment [3], the “Antibody Specificity (Relative Potency to METH), mAb4G9” value was under 0.001.
